Experiments:
Staphylococcus aureus [1] = test: Antibacterial activity against Staphylococcus aureus ATCC 29213 incubated for 16 to 18 hrs by CLSI-based microbroth dilution method; assay type: functional; details: time 16-18 hrs
Staphylococcus aureus [2] = test: Antibacterial activity against methicillin-resistant Staphylococcus aureus clinical isolate 1 incubated for 16 to 18 hrs by CLSI-based microbroth dilution method; assay type: functional; details: time 16-18 hrs
Staphylococcus aureus [3] = test: Antibacterial activity against methicillin-resistant Staphylococcus aureus clinical isolate 2 incubated for 16 to 18 hrs by CLSI-based microbroth dilution method; assay type: functional; details: time 16-18 hrs
Staphylococcus aureus [4] = test: Antibacterial activity against methicillin-resistant Staphylococcus aureus clinical isolate 3 incubated for 16 to 18 hrs by CLSI-based microbroth dilution method; assay type: functional; details: time 16-18 hrs
Staphylococcus aureus [5] = test: Antibacterial activity against methicillin-resistant Staphylococcus aureus clinical isolate 4 incubated for 16 to 18 hrs by CLSI-based microbroth dilution method; assay type: functional; details: time 16-18 hrs
Staphylococcus aureus [6] = test: Antibacterial activity against methicillin-resistant Staphylococcus aureus clinical isolate 5 incubated for 16 to 18 hrs by CLSI-based microbroth dilution method; assay type: functional; details: time 16-18 hrs
Staphylococcus aureus [7] = test: Antibacterial activity against methicillin-resistant Staphylococcus aureus clinical isolate 6 incubated for 16 to 18 hrs by CLSI-based microbroth dilution method; assay type: functional; details: time 16-18 hrs
Staphylococcus aureus [8] = test: Antibacterial activity against methicillin-resistant Staphylococcus aureus clinical isolate 7 incubated for 16 to 18 hrs by CLSI-based microbroth dilution method; assay type: functional; details: time 16-18 hrs
Staphylococcus aureus [9] = test: Antibacterial activity against methicillin-resistant Staphylococcus aureus clinical isolate 8 incubated for 16 to 18 hrs by CLSI-based microbroth dilution method; assay type: functional; details: time 16-18 hrs
Staphylococcus aureus [10] = test: Antibacterial activity against methicillin-resistant Staphylococcus aureus clinical isolate 9 incubated for 16 to 18 hrs by CLSI-based microbroth dilution method; assay type: functional; details: time 16-18 hrs
Staphylococcus aureus [11] = test: Antibacterial activity against methicillin-resistant Staphylococcus aureus clinical isolate 10 incubated for 16 to 18 hrs by CLSI-based microbroth dilution method; assay type: functional; details: time 16-18 hrs
[12] = Hemolytic activity in sheep erythrocytes incubated for 1 hr by absorbance based analysis; assay type: toxicity, cell-based, Ovis aries, Erythrocyte

Structure (SMILES)	MIC (Staphylococcus aureus [1]) [µg/mL]	MIC (Staphylococcus aureus [2]) [µg/mL]	MIC (Staphylococcus aureus [3]) [µg/mL]	MIC (Staphylococcus aureus [4]) [µg/mL]	MIC (Staphylococcus aureus [5]) [µg/mL]	MIC (Staphylococcus aureus [6]) [µg/mL]	MIC (Staphylococcus aureus [7]) [µg/mL]	MIC (Staphylococcus aureus [8]) [µg/mL]	MIC (Staphylococcus aureus [9]) [µg/mL]	MIC (Staphylococcus aureus [10]) [µg/mL]	MIC (Staphylococcus aureus [11]) [µg/mL]	HC50 at 1 h [12] [µg/mL]
COc1cc2c(c(O)c1C(=O)/C=C/c1ccc(OCCCCC[N+](C)(C)CC(=O)N(C(C)C)C(C)C)cc1)C=CC(C)(C)O2.[Br-]	2	2	2	2	1	2	1	2	4	2	2	229
COc1cc2c(c(O)c1C(=O)/C=C/c1ccc(OCCCC[N+](C)(C)CC(=O)N3CCSCC3)cc1)C=CC(C)(C)O2.[Br-]	4	4	2	2	4	4	2	4	4	2	2	705
CCCN(CCC)C(=O)C[N+](C)(C)CCCCCOc1ccc(/C=C/C(=O)c2c(OC)cc3c(c2O)C=CC(C)(C)O3)cc1.[Br-]	2	4	4	2	2	2	1	2	2	1	2	436
CCCCN(CCCC)C(=O)C[N+](C)(C)CCCCCOc1ccc(/C=C/C(=O)c2c(OC)cc3c(c2O)C=CC(C)(C)O3)cc1.[Br-]	2	2	2	4	8	2	1	2	4	8	2	409
COc1cc2c(c(O)c1C(=O)/C=C/c1ccc(OCCCCC[N+](C)(C)CC(=O)N3CCSCC3)cc1)C=CC(C)(C)O2.[Br-]	4	8	4	4	4	4	2	4	4	1	1	210
CCCCCCNC(=O)C[N+](C)(C)CCCOc1ccc(/C=C/C(=O)c2c(OC)cc3c(c2O)C=CC(C)(C)O3)cc1.[Br-]	2	2	2	2	2	2	4	4	2	1	1	97.9
CCCCN(CCCC)C(=O)C[N+](C)(C)CCCOc1ccc(/C=C/C(=O)c2c(OC)cc3c(c2O)C=CC(C)(C)O3)cc1.[Br-]	2	2	2	2	2	1	1	1	1	2	2	434
CCCN(CCC)C(=O)C[N+](C)(C)CCCOc1ccc(/C=C/C(=O)c2c(OC)cc3c(c2O)C=CC(C)(C)O3)cc1.[Br-]	2	2	2	1	2	2	2	1	2	1	2	118
CCCCCCNC(=O)C[N+](C)(C)CCCCOc1ccc(/C=C/C(=O)c2c(OC)cc3c(c2O)C=CC(C)(C)O3)cc1.[Br-]	2	2	2	2	8	2	1	4	4	4	2	938
CCCCNC(=O)C[N+](C)(C)CCCCCOc1ccc(/C=C/C(=O)c2c(OC)cc3c(c2O)C=CC(C)(C)O3)cc1.[Br-]	2	2	2	2	2	1	1	2	2	4	2	826
COc1cc2c(c(O)c1C(=O)/C=C/c1ccc(OCCC[N+](C)(C)CC(=O)N3CCOCC3)cc1)C=CC(C)(C)O2.[Br-]	8	8	8	8	16	8	8	4	8	8	8	> 1280
CCCCN(CCCC)C(=O)C[N+](C)(C)CCCCOc1ccc(/C=C/C(=O)c2c(OC)cc3c(c2O)C=CC(C)(C)O3)cc1.[Br-]	2	1	2	1	2	2	1	4	4	1	2	466
COc1cc2c(c(O)c1C(=O)/C=C/c1ccc(OCCCCC[N+](C)(C)CC(=O)N3CCOCC3)cc1)C=CC(C)(C)O2.[Br-]	8	2	4	4	4	4	2	4	4	4	2	> 1280
CCCNC(=O)C[N+](C)(C)CCCCCOc1ccc(/C=C/C(=O)c2c(OC)cc3c(c2O)C=CC(C)(C)O3)cc1.[Br-]	4	2	8	2	2	1	1	2	2	8	2	974
COc1cc2c(c(O)c1C(=O)/C=C/c1ccc(OCCCC[N+](C)(C)CC(=O)N(CC(C)C)CC(C)C)cc1)C=CC(C)(C)O2.[Br-]	4	2	2	1	4	1	1	1	2	2	4	333
COc1cc2c(c(O)c1C(=O)/C=C/c1ccc(OCCC[N+](C)(C)CC(=O)N(CC(C)C)CC(C)C)cc1)C=CC(C)(C)O2.[Br-]	2	2	4	1	2	1	1	1	2	2	4	447
COc1cc2c(c(O)c1C(=O)/C=C/c1ccc(OCCCC[N+](C)(C)CC(=O)N(C(C)C)C(C)C)cc1)C=CC(C)(C)O2.[Br-]	2	8	2	2	2	2	1	2	2	2	2	657
